Experimental data reported in US20160331662A1, “Compositions that Inhibit and Prevent the Formation of Dental Caries and Methods of Using the Same” (priority 2014, published 2016).

How the values were obtained:
[1] = biological target: T1, iSRCR1 (Homo sapiens, UniProt Q9UGM3); test: SPR binding of analytes to immobilized iSRCR1 (CM5 chip, 1:1 Langmuir); details: substance alone over CM5 chip
T1 construct: strongly proves that a single SRCR domain contains the adherence sites for AgI/II and SspB; made in house; host or cells: Drosophila expression system
T1 sequence (Q9UGM3 102-202 limits assumed): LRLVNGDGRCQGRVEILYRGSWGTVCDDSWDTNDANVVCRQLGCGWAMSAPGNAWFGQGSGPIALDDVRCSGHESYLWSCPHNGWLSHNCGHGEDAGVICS
Description: (§1) Real time binding analyses of the SRCR domains with AgI/II fragments were carried out using the BIAcore 2000 system. […] Self association of iSRCR1 or iSRCR123 (at 2 μM) were also determined in a similar manner as described above. Finally to determine the effect of calcium SPR analysis was carried out by dialyzing the analytes and ligands in binding buffer devoid of CaCl2.
(§2) In addition, the SRCR holding two distinct surfaces compounded the elucidation of individual kinetics, and presently there are no modeling protocols available to determine the individual affinities for such a system, therefore for simplicity we have utilized a single site 1:1 Langmuir model. All experiments were carried out in triplicates and the kinetics of the association (KA) and dissociation (KD) rate constants were deduced using the 1:1 Langmuir Kinetic model on the BIA-Evaluation software. The concentration (C in μM) of analyte (FL^AgI/II or FL^SspB at 2 μM) that adhered to the immobilized ligand (iSRCR1, iSRCR123) within the flow cell was calculated using the formula C=(RU/MW)×(1/V), where RU is resonance unit (1 RU=1 pg of bound protein), MW is molecular weight of analyte and V is volume of flow cell (1.2×10^−10 L).

[2] = biological target: T2, iSRCR123 (Homo sapiens, UniProt Q9UGM3); test: SPR binding of analytes to immobilized iSRCR123 (CM5 chip, 1:1 Langmuir); details: substance alone over CM5 chip
T2 construct: multiple SRCR domains have better adherence capability compared to that of a single SRCR domain; made in house; host or cells: Drosophila expression system
T2 sequence (Q9UGM3 102-463 limits assumed): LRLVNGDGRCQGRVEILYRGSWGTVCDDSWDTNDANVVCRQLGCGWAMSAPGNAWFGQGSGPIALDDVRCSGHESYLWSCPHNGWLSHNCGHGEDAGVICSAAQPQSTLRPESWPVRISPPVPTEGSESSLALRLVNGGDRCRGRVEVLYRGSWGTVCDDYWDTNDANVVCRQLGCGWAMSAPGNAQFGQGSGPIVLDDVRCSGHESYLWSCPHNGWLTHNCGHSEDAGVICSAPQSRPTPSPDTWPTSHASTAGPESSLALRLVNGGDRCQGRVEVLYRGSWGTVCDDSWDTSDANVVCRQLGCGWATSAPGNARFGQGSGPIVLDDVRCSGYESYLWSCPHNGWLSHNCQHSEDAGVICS
Description: as §1, §2

[3] = biological target: T3, SAG (Homo sapiens, UniProt Q9UGM3); test: SPR binding of analytes to immobilized SAG; details: 2 mM, control experiment
T3 construct: from tissue; host or cells: saliva (purified SAG, gift)
T3 sequence (Q9UGM3 20-2413): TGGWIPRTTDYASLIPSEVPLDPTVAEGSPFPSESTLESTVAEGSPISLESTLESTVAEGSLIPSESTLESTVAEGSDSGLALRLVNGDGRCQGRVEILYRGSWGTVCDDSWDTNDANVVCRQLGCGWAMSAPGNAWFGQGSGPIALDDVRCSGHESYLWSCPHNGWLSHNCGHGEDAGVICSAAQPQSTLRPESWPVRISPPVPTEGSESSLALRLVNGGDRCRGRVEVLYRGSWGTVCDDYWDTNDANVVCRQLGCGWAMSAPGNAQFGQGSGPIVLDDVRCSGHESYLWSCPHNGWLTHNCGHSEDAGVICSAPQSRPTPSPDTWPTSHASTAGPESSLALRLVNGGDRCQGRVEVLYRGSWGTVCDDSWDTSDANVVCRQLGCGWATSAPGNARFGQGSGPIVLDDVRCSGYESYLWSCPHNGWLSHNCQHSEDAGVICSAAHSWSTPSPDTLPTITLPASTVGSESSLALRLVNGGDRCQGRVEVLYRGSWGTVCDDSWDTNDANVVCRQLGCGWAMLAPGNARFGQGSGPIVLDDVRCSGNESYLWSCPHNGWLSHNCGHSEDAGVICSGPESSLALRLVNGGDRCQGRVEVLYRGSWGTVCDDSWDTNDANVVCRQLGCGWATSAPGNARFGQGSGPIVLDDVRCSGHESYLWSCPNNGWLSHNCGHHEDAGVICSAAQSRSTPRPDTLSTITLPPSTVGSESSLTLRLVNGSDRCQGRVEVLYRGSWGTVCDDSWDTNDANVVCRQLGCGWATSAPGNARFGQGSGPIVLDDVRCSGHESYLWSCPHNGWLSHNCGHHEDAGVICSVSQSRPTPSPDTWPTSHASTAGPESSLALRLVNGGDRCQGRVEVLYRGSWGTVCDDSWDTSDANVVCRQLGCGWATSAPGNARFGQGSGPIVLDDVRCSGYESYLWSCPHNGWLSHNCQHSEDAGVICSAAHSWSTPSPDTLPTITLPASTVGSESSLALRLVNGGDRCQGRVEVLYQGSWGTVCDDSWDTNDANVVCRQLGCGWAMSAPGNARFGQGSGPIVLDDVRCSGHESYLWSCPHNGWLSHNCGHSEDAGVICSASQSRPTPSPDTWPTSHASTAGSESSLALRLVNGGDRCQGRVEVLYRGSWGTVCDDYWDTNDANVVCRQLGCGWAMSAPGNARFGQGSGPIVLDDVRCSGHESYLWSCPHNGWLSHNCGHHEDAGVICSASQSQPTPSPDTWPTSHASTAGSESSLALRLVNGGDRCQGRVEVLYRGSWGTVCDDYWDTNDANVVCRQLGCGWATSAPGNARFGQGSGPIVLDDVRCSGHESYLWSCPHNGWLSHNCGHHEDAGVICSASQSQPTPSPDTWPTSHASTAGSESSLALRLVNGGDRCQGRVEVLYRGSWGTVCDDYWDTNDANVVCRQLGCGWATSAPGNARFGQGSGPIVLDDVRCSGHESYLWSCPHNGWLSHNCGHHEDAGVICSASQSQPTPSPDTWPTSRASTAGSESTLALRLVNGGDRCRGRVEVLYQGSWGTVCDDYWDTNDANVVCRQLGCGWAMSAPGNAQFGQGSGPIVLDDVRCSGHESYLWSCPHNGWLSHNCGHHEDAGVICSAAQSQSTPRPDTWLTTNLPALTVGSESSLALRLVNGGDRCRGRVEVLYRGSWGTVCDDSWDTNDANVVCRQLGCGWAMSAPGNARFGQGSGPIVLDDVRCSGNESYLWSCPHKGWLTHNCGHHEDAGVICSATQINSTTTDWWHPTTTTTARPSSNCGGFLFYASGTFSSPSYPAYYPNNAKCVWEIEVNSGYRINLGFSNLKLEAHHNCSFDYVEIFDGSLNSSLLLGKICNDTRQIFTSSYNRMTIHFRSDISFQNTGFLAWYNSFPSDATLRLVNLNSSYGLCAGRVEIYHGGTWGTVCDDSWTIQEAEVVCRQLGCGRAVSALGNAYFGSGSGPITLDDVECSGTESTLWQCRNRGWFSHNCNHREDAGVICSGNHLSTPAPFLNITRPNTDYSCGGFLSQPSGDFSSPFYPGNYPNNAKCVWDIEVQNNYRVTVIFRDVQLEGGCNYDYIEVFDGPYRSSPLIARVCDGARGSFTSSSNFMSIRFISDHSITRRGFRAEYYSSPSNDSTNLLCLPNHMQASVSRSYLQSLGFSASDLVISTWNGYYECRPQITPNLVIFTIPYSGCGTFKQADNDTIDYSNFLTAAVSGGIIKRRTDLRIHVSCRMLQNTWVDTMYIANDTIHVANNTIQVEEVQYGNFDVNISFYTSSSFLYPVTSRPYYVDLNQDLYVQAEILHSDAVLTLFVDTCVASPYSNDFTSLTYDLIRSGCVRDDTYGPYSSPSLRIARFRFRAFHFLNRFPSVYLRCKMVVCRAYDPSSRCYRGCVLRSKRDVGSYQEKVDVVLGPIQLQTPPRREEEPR
Description: as §1, §2

[4] = tested on: adhesion of AgI/II of S. mutans to iSRCR1; test: Adherence/inhibition SPR: AgI/II fragments on immobilized iSRCR1; format: binding
Description: (§3) Carbohydrates Galβ1-3-GalNac and Mannose (identified from glycan profile analysis) at different concentrations (0.010, 0.050, 0.1, 0.5 and 1 mM) were incubated with 2 μM of each FL, A3VP1 and C123 of AgI/II and SspB and the interaction with immobilized iSRCR1 and iSRCR123 with running buffer containing 20 mM HEPES, 150 mM NaCl and 2.5 mM CaCl2, pH 7.4 at 25° C. and with flow rate of 20 μl/min was analyzed. Direct adherence of these carbohydrates alone served as the control and all calculations were carried out using the BIAevaluation software. Using the same protocol above at varying concentrations the effect of SRCRP2 peptide on the adherence inhibition was assessed.

[5] = biological target: T4, adhesion of SspB of S. gordonii to iSRCR1 (Streptococcus gordonii, UniProt A8AUS1); format: binding; details: 2 μM protein
T4 construct: made in house; host or cells: pET23d vector
Description: as §3

[6] = tested on: adhesion of SspB of S. gordonii to iSRCR1; format: binding; details: lower concentrations 0.010 mM-0.500 mM
Description: as §3

[7] = tested on: adhesion of AgI/II of S. mutans to iSRCR123; test: Adherence/inhibition SPR: AgI/II fragments on immobilized iSRCR123; format: binding
Description: as §3

[8] = tested on: adhesion of SspB of S. gordonii to iSRCR123; test: Adherence/inhibition SPR: SspB fragments on immobilized iSRCR123; format: binding
Description: as §3

[9] = biological target: T5, AgI/II adherence to immobilized salivary agglutinin (Streptococcus mutans serotype c, UniProt P23504); test: SPR inhibition of SAG adherence of FL surface protein (Example 2); format: binding, S. mutans; details: 2 mM
T5 construct: Recombinant full length (FL) constructs of surface proteins (homologs of AgI/II) AgI/II, SspB, Pas; made in house
Description: (§4) Inhibition of SAG adherence to AgI/II, SspB, Pas, along with glucan binding protein C (GbpC) and collagen binding protein (rcnM) by Galβ1-3GalNac (core-1) was determined as is described in Example 1 and as described below.
(§5) Recombinant full length (FL) constructs of surface proteins (homologs of AgI/II) AgI/II, SspB, Pas, along with GbpC (Glucan binding protein C) and rcnM (collagen binding protein) were incubated with various concentrations (0.010 mM to 2 mM) of Galβ1-3GalNac at room temperature and their binding interaction with immobilized salivary agglutinin on a CM5 sensor chip was determined.

[10] = biological target: T6, SspB adherence to immobilized salivary agglutinin (Streptococcus gordonii, UniProt A8AUS1); test: as above; format: binding, S. gordonii; details: 2 mM
T6 construct: (39-1433) (NotI) Reverse; made in house; host or cells: pET23d vector
Description: as §4, §5

[11] = tested on: GbpC (Glucan binding protein C) adherence to immobilized salivary agglutinin; test: as above; parameters: species or system S. mutans; details: 2 mM
Description: as §4, §5

[12] = tested on: rcnM (collagen binding protein) adherence to immobilized salivary agglutinin; test: as above; details: 2 mM
Description: as §4, §5

[13] = biological target: T7, Pas adherence to immobilized salivary agglutinin (Streptococcus intermedius, UniProt Q9KW51); test: as above; format: binding, S. intermedius; details: 2 mM
T7 construct: Recombinant full length (FL) constructs of surface proteins (homologs of AgI/II) AgI/II, SspB, Pas; made in house
Description: as §4, §5

[14] = tested on: S. gordonii DL1; test: Aggregation assay (OD700 over 60 min); format: cell-based
Description: (§6) Aggregation assays were performed as described earlier with slight modifications. Briefly, S. mutans UA159 and S. gordonii DL1 cells were grown in TSY broth media overnight at 37° C. in the presence of 5% CO2. The bacteria were centrifuged at 5000×g and washed with a buffer containing 20 mM HEPES pH 7.4, 150 mM NaCl and re-suspended to an approximate OD700 of 1. The bacterial suspension (900 μl) was mixed with 100 μl of SAG or iSRCR1 (10 μM) or iSRCR123 ([…]) or commercially synthesized (Think Peptides, Inc) SRCRP2 peptide with fluorescein amidite (FAM) at the carboxyl end ([…]-[FAM]) (SEQ ID NO:9, at both 400 μg/ml and 1 mg/ml) in the presence of 6 mM CaCl2 and aggregation was measured by recording OD700over 60 min at 5 min intervals, where the buffer alone was used as control. All experiments were carried out at least five times, and the results were analyzed with One-way ANOVA. Post-hoc testing where *, P<0.05 was considered statistically significant and results were presented as the percentage of cells aggregated.

[15] = tested on: S. mutans UA159; test: Aggregation assay (OD700 over 60 min); format: cell-based
Description: as §6

[16] = biological target: T8, AgI/II of S. mutans (Streptococcus mutans serotype c, UniProt P23504); test: ELISA binding of fluorescent tagged SRCRP2 peptide; details: FAM-labelled peptide
T8 construct: Recombinant full length (FL) constructs of surface proteins (homologs of AgI/II) AgI/II, SspB, Pas; made in house

[17] = biological target: SspB of S. gordonii (Streptococcus gordonii, UniProt A8AUS1); details: FAM-labelled peptide
Chain of SspB of S. gordonii (A8AUS1 39-1433): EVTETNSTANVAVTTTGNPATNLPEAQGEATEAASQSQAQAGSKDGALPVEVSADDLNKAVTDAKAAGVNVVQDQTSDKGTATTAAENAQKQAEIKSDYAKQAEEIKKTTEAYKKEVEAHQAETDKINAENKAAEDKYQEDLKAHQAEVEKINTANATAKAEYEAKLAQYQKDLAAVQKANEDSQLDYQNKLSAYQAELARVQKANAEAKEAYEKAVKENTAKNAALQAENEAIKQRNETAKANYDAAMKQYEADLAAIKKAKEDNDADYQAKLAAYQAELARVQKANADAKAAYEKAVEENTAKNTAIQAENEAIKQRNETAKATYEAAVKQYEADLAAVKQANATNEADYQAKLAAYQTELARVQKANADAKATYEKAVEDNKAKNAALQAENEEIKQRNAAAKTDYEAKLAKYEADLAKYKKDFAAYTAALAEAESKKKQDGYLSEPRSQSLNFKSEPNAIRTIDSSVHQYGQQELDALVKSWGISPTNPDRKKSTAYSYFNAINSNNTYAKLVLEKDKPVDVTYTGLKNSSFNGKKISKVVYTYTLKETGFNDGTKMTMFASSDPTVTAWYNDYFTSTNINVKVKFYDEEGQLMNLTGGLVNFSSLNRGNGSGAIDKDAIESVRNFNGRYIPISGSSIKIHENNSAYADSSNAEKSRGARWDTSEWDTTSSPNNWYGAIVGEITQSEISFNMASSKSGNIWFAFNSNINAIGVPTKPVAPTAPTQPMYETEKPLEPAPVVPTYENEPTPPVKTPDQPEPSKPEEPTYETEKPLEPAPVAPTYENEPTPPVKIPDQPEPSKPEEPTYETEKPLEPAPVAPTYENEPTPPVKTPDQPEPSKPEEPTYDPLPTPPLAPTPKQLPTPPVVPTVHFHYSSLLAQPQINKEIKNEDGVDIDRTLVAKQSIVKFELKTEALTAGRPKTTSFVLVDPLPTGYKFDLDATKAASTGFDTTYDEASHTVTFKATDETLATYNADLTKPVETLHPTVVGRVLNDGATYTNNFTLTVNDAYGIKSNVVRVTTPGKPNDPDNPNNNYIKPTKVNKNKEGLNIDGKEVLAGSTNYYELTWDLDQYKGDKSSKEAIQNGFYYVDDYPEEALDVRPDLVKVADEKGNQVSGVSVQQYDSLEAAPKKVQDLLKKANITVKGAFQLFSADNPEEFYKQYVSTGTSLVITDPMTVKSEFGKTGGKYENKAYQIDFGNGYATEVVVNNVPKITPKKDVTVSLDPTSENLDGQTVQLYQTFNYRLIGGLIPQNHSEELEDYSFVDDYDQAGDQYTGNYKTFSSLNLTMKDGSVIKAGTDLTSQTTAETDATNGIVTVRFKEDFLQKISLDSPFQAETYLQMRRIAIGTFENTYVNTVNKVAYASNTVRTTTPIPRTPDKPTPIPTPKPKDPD

[18] = lower concentrations 0.010 mM-0.500 mM
[19] = peptide at lower concentration (400 μg/ml)

## CC(=O)N[C@H]1C(O)O[C@H](CO)[C@H](O)[C@@H]1O[C@@H]1O[C@H](CO)[C@H](O)[C@H](O)[C@H]1O (some centres unmarked) [Galβ1-3-GalNac]
[1]
  direct binding to immobilized iSRCR1 (in words): did not have any interactions
[2]
  direct binding to immobilized iSRCR123 (in words): did not have any interactions
[3]
  direct adherence to SAG (in words): did not show direct adherence
[4]; 1.0 mM, 2 μM protein
  inhibition of adhesion of A3VP1^AgI/II to iSRCR1: 79%
  inhibition of adhesion of C123^AgI/II to iSRCR1: 73%
  inhibition of adhesion of FL^AgI/II to iSRCR1: 85%
[4]; [18]
  effect on adhesion of all AgI/II fragments with iSRCR1 (in words): enhanced the adhesion
[5]; 1.0 mM
  inhibition of adhesion of A3VP1^SspB to iSRCR1: 61%
  inhibition of adhesion of C123^SspB to iSRCR1: 32%
  inhibition of adhesion of FL^SspB to iSRCR1: 64%
[6]
  effect on adhesion of all SspB fragments with iSRCR1 (in words): enhanced the adhesion
[7]; 1.0 mM, 2 μM protein
  inhibition of adhesion of A3VP1^AgI/II to iSRCR123: 75%
  inhibition of adhesion of C123^AgI/II to iSRCR123: 47%
  inhibition of adhesion of FL^AgI/II to iSRCR123: 73%
[7]; [18]
  effect on adhesion of all AgI/II fragments with iSRCR123 (in words): enhanced the adhesion
[8]; 1.0 mM, 2 μM protein
  inhibition of adhesion of A3VP1^SspB to iSRCR123: 60%
  inhibition of adhesion of C123^SspB to iSRCR123: 40%
  inhibition of adhesion of FL^SspB to iSRCR123: 37%
[8]; [18]
  effect on adhesion of all SspB fragments with iSRCR123 (in words): enhanced the adhesion
[9]
  inhibition of SAG adherence of AgI/II: 94%
[10]
  inhibition of SAG adherence of SspB: 65%
[11]
  inhibition of SAG adherence of GBPC: 72%
[12]
  inhibition of SAG adherence of rcnM: 69%
[13]
  inhibition of SAG adherence of Pas: 28%

## QGRVEVLYRGSWGTVC [SRCRP2 peptide, reference compound]
[1]
  direct binding to immobilized iSRCR1 (in words): did not show any binding
[2]
  direct binding to immobilized iSRCR123 (in words): did not show any binding
[14]; peptide 1 mg/ml
  percentage of cells aggregated: 12%
[14]; [19]
  percentage of cells aggregated: 11%
[15]; peptide 1 mg/ml
  percentage of cells aggregated: 18%
[15]; [19]
  percentage of cells aggregated: 12%
[4]; 0.005 mM peptide, 2 μM protein
  change in adherence of C123^AgI/II to iSRCR1: 2.3%
  improvement of adherence of A3VP1^AgI/II to iSRCR1: 13%
  improvement of adherence of FL^AgI/II to iSRCR1: 8%
[5]; 0.005 mM peptide
  change in adherence of A3VP1^SspB to iSRCR1: 3%
  change in adherence of C123^SspB to iSRCR1: 4%
  improvement of adherence of FL^SspB to iSRCR1: 97%
[7]; 0.005 mM peptide, 2 μM protein
  change in adherence of C123^AgI/II to iSRCR123: 7%
  improvement of adherence of A3VP1^AgI/II to iSRCR123: 16%
  improvement of adherence of FL^AgI/II to iSRCR123: 8%
[8]; 0.005 mM peptide, 2 μM protein
  change in adherence of A3VP1^SspB to iSRCR123: 3%
  change in adherence of C123^SspB to iSRCR123: 5%
  improvement of adherence of FL^SspB to iSRCR123: 91%
[16]
  adherence to AgI/II and its subfragments by ELISA (in words): adheres well
[17]
  adherence to SspB and its subfragments by ELISA (in words): adheres well
